In publication PMC7997269, “Oral Proteasomal Inhibitors Ixazomib, Oprozomib, and Delanzomib Upregulate the Function of Organic Anion Transporter 3 (OAT3): Implications in OAT3-Mediated Drug-Drug Interactions” (Pharmaceutics, 2021):
One block for each molecule: values may come before it.

Columns and labels:
OAT3 (hOAT3) = biological target: T1, OAT3 (hOAT3) (Homo sapiens, UniProt Q8TCC7); assay: cis-inhibition of [3H]estrone sulfate uptake in hOAT3-expressing COS-7 cells, […] min; assay type: cell-based
T1 construct: gene SLC22A8; full-length human OAT3 with fused Myc tag, stably expressed in COS-7 cells; ~80 kDa on blot
T1 sequence (Q8TCC7 1-542): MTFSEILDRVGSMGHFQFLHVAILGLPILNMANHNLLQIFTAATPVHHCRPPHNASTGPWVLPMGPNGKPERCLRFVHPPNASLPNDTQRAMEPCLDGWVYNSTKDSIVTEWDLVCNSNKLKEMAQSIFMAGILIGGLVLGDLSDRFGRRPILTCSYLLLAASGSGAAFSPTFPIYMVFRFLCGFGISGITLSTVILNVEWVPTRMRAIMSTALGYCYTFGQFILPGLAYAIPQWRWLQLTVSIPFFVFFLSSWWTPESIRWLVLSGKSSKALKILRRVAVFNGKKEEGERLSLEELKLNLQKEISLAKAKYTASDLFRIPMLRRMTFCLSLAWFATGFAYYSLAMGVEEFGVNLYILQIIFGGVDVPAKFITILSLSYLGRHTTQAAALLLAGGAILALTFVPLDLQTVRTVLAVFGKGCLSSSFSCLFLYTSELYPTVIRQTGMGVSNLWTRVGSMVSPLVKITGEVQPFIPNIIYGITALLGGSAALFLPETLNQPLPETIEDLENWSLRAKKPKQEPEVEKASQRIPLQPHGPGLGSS

20S proteasome = system: T2, 20S proteasome; assay: […] activity with SUC-LLVY-AMC in lysate after […] h treatment of intact COS-7 cells; assay type: cell-based; conditions: 37 °C; reversible; chymotrypsin-like activity
T2 construct: gene PSMB5; endogenous 20S proteasome of hOAT3-expressing COS-7 cells; activity read in lysate of drug-treated cells with SUC-LLVY-AMC (chymotrypsin-like, beta5); complex of 28 subunits

[1] = substrate: C[C@]12CC[C@@H]3c4ccc(OS(=O)(=O)O)cc4CC[C@H]3[C@@H]1CCC2=O; assay: cells, lysate or membranes; assay type: cell-based, Homo sapiens; conditions: untreated cells; PBS/Ca2+/Mg2+; 0.3-10 µM; labelled compound (3H); parental-cell uptake subtracted

inhibition at 5 µM (OAT3 (hOAT3)): 40%
Molecule: CCCN(CCC)S(=O)(=O)c1ccc(C(=O)O)cc1 [probenecid]

Molecule: CC(C)C[C@H](NC(=O)CNC(=O)c1cc(Cl)ccc1Cl)B(O)O [ixazomib]
% inhibition at 30 nM (20S proteasome): 50 (95% CI: 46 to 54)

Molecule: CC(C)C[C@H](NC(=O)[C@@H](NC(=O)c1cccc(-c2ccccc2)n1)[C@@H](C)O)B(O)O [delanzomib]
% inhibition at 30 nM (20S proteasome): 61 (95% CI: 57 to 65)

B1: OAT3 (hOAT3) (Homo sapiens) (protein)
chain: T1 sequence (Q8TCC7 1-542)
notes: full-length human OAT3 with fused Myc tag, stably expressed in COS-7 cells; ~80 kDa on blot
Km [1]: 4.2 ± 0.3 µM
